Patent US20110251128A1, “THYMOSIN Beta4 PEPTIDES PROMOTE TISSUE REGENERATION” (The Board of Regents of the University of Texas System, priority 2010, published 2011)
Entries after “also recorded” stand apart in the source; their conditions may differ. Read-outs that look alike come from different tables or passages of the source.

Legend:
myocardial cells = assay: Beating frequency of myocardial cells in embryonic cardiac explants on collagen gel; type: cell-based, mouse; details: 300 ng peptide or 100 ng TB4; normalized to PBS and TB4 controls (TB4 = 100.00)
Experimental: In vitro embryonic cardiac cell migration assay. The outflow tract of the heart was dissected from E11.5 wild-type mouse embryos and placed on rat-tail collagen matrix (Roche) endothelial layer facing down as described (Bock-Marquette et al., 2004; Runyan and Markwald, 1983). After 10 h of attachment, three independent explants were incubated with 300 ng of peptide #1-17, 100 ng of TB4, or 3 μl PBS in […] OPTIMEM medium (Invitrogen/Gibco) respectively. Medium and protein were changed every two days. To monitor migration distance photos were taken daily using Nikon DXM1200F microscope at 4× magnification. Cell migration distance was quantified by ImageJ software (http at rsb.info.nih.gov/ij/) in three separate explants and three measurements for each treatment respectively. Beating frequency of myocardial cells was counted three times at 7-15 days of treatment. Calculations were normalized to PBS and TB4 treated positive and negative controls. After 15 days at 37° C. in 5% CO2, explants were fixed in 4% paraformaldehyde in PBS for 10 min at room temperature. Explants were stored at 4° C. in PBS for further immunocytochemical investigations.

[1] = tested on: C57BL/6J male mice after coronary ligation; assay: Myocardial infarction by LAD coronary ligation in adult mice: echocardiography, scar volume, myocyte size; type: in vivo, mouse
Text: (§1) Animals and Surgical procedures. Mice: Myocardial infarctions were produced in seventy C57BL/6J male mice at 16 weeks of age (25-30 g) by ligation of the left anterior descending (LAD) coronary artery as described (Garner et al., 2003). All animal protocols were reviewed and approved by the University of Texas Southwestern Medical School Institutional Animal Care Advisory Committee and were in compliance with the rules governing animal use as published by the NIH. Mice were sedated in an isoflurane chamber (5%) for 60 seconds until self-designed coaxial mask could be safely applied. The mask supplied continuous isoflurane (2.0%) and oxygen (98.0%) under positive pressure from a Harvard small animal respirator throughout the procedures. Immediately after ligation mice were injected with 200 ng of peptide in […] or […] PBS in collagen intracardially in the infarction border, and with […] PBS intraperitoneally as described (Bock-Marquette et al., 2004). Intraperitoneal injections were repeated every three days after ligation. Effective doses of the peptides were calculated based on optimal in vitro cell migration effect and on biodistribution calculations of full length TB4 (Mora et al., 1997). The inventors administered buprenorphine (0.05 mg/kg) for post-operative pain control. Hearts were removed 1, 14 and 21 days after ligation and processed for further investigations.
Analysis of cardiac function by echocardiography: Echocardiograms to assess systolic function were performed using M-mode and 2-dimensional measurements as described previously (Garner et al., 2003). The measurements represented the average of six selected cardiac cycles from at least two separate scans performed in random-blind fashion with papillary muscles used as a point of reference for consistency in level of scan. End diastole was defined as the maximal left ventricle (LV) diastolic dimension and end systole was defined as the peak of posterior wall motion. Single outliers in each group were omitted for statistical analysis. Fractional shortening (FS), a surrogate of systolic function, was calculated from LV dimensions as follows: FS=[(EDD−ESD)/EDD]×100%. Ejection fraction (EF) was calculated as follows: EF=[(edd^3−esd^3)/edd^3]×100%. EDD, end diastolic dimension; ESD, end systolic dimension.
Calculation of scar volume and myocyte size: Scar volume was calculated after Masson's trichrome staining in six sections through the heart of each mouse using Openlab 3.03 software (Improvision) similar to previously described (Bock-Marquette et al., 2004). Percent area of collagen deposition was measured on each section in blinded fashion and averaged for each mouse.

cardiomyocytes = assay: TUNEL assay on hearts after coronary ligation; type: in vivo, mouse; details: 24 h after ligation
Text: (§2) Animals and Surgical procedures. Mice: Myocardial infarctions were produced in seventy C57BL/6J male mice at 16 weeks of age (25-30 g) by ligation of the left anterior descending (LAD) coronary artery as described (Garner et al., 2003). All animal protocols were reviewed and approved by the University of Texas Southwestern Medical School Institutional Animal Care Advisory Committee and were in compliance with the rules governing animal use as published by the NIH. Mice were sedated in an isoflurane chamber (5%) for 60 seconds until self-designed coaxial mask could be safely applied. The mask supplied continuous isoflurane (2.0%) and oxygen (98.0%) under positive pressure from a Harvard small animal respirator throughout the procedures. […] Effective doses of the peptides were calculated based on optimal in vitro cell migration effect and on biodistribution calculations of full length TB4 (Mora et al., 1997). […]
(§3) Immunohistochemistry. Adult mouse cardiac tissue was fixed in 4% paraformaldehyde and sections were analyzed by immunohistochemistry. […] Number of sm a-actin positive capillaries and Wt-1 positive cells were counted at the infarction border zone in high power photographs at all levels of the sections in three peptide, TB4 and PBS treated hearts respectively.

Akt = assay: Western blot anti-phosphoS473-Akt on heart lysates after coronary ligation; type: in vivo, mouse; details: 24 hours after treatment
Text: as §2
(§4) Western blot. […] The protein fraction was isolated from the interphase of the Trizol purification as recommended by the manufacturer; 10 μg of the total protein was loaded and analyzed by Western blot with protein-specific primary antibodies: VEGF, p-Marcks, p-Akt, and GAPDH (1:100) (Santa Cruz), Connexin43 (1:50) (Invitrogen), N-Cadherin (1:5000) (BD Biosciences) and pS368-Connexin43 (1:1000) (Cell Signaling Technology).

mature coronary vessels = assay: Immunohistochemistry, smooth muscle α-actin positive vessels at infarction border zone; type: in vivo, mouse
Text: as §1
Immunohistochemistry. Adult mouse cardiac tissue was fixed in 4% paraformaldehyde and sections were analyzed by immunohistochemistry. Hearts were sectioned at eight levels from the base to the apex. Serial sections were immunostained with primary antibodies against Pecam-1 and Wt-1 (1:50) (Santa Cruz), Smooth muscle a-actin (1:220) (Sigma), Sarcomeric a-actinin (1:200) (Sigma), Connexin43 (1:200) (Invitrogen), pS368-Connexin43 (1:200) (Cell Signaling Technology) as recommended by the manufacturer. Terminal deoxynucleotidyl transferase dUTP nick end labeling (TUNEL) assay was performed using In Situ Cell Detection kit (Roche). Number of sm a-actin positive capillaries and Wt-1 positive cells were counted at the infarction border zone in high power photographs at all levels of the sections in three peptide, TB4 and PBS treated hearts respectively.

[2] = tested on: Wt-1 positive cardiac progenitors; assay: Immunohistochemistry, Wt-1 positive progenitor cells at infarction border; type: in vivo, mouse; details: border of the infarction, 21 days / three weeks after peptide injections
Text: as §2, §3

N-Cadherin = assay: Western blot of N-Cadherin in infarcted hearts; type: in vivo, mouse; details: infarction core and border zone, 21 days after infarction
Text: as §2, §4

pS368-Cx43 = assay: Western blot of pS368-Connexin43 in infarcted hearts; type: in vivo, mouse; details: ischemic border, 21 days, compared to PBS
Text: as §2, §4

full thickness wound = details: cited from earlier work; for increase of epithelial layer restoration in the wound: topical or injected, compared to untreated
keratinocytes = details: within four to five hours after treatment, compared to untreated keratinocytes; cited from earlier work
[3] = 21 days after ligation, compared to PBS
[4] = three weeks after ligation, intracardiac once plus intraperitoneal every three days

With Thymosin β4 [TB4] as the substance, how does the “frequency of myocardial beating” value (myocardial cells) read?
The value was 100.00+/−5.03 beats/75 sec.

And the “myocyte diameter / size in the ischemic area” value [1, 3]?
The value was “increased myocyte diameter; also recorded: significantly increase the size of surviving cardiomyocytes”.

What about the “scar (Masson's trichrome staining)” value [1, 3] of the same substance?
The value was “significant reduction of the scar”.

And the “end systolic diameter (ESD)” value ([1]; after three weeks)?
Its value is “significantly decreased”.

And the “calculated ejection fraction (EF)” value [1, 4]?
Its value is 50.9+/−3.6%.

What about the “mean fractional shortening (FS)” value [1, 4] of the same substance?
Its value is 87.4+/−2.6%.

What about the “TUNEL positive cardiomyocytes (myocardial cell death)” value (cardiomyocytes) of the same substance?
Its value is “significant decrease of myocardial cell death”.

And the “Akt activation (phosphoS473-Akt)” value (Akt)?
The value was “increased Akt activation”.

What about the “number of mature, smooth muscle α-actin positive vessels” value (mature coronary vessels; 21 days / three weeks, compared to PBS) of the same substance?
The value was “increase the number of mature, smooth muscle a-actin positive vessels”.

What about the “number of mature coronary vessels” value (mature coronary vessels; two weeks after treatment, compared to PBS (FIG. 10)) of the same substance?
Its value is “increases”.

And the “number of Wt-1 positive cells” value [2]?
Its value is “increased significantly; also recorded: significant increase”.

What about the N-Cadherin expression (N-Cadherin) of the same substance?
Its N-Cadherin expression is “slight, but non-significant increase; also recorded: slightly upregulated”.

And the “pS368-Cx43 (Cx43 phosphorylation)” value (pS368-Cx43)?
The value was “significantly lower; also recorded: decrease in Cx43 phosphorylation”.

And the “increase of epithelial layer restoration in the wound” value (full thickness wound; by day four)?
Its value is 42%.

What about the “increase of epithelial layer restoration in the wound” value (full thickness wound; by day seven) of the same substance?
Its value is 61%.

And the wound contraction (full thickness wound; compared to untreated wounds)?
The wound contraction was “more than 11%”.

What about the “collagen deposition in the wound and angiogenesis” value (full thickness wound; rat, in vivo) of the same substance?
The value was “stimulated collagen deposition”.

What about the “increase of keratinocyte migration” value (keratinocytes) of the same substance?
The value was “two to threefold”.
